Data reported in PMC12298827, “Subchronic Toxicities of Four Per- and Polyfluoroalkyl Substances (PFASs) by Oral Exposure in Sprague–Dawley Rats” (Toxics, 2025).

Tested on: male and female Sprague–Dawley rats
Assay: 90-day subchronic oral gavage toxicity study
Format: in vivo, rat
Conditions: female
Procedure: Subchronic (90-day) studies were performed in accordance with current U.S. EPA’s Toxic Substances Control Act Good Laboratory Practice (GLP) Standards, with the following two general exceptions to the GLP guidelines: Analysis of the dose formulations was conducted according to RTI-approved Standard Operating Procedures, and corn oil (the vehicle) was not characterized (certificate of analysis from the vendor is available in the appendices to the final reports). Male and female Sprague–Dawley rats (five dose levels plus a control, n = 10/sex/dose group, corn oil vehicle dose volume of 3 mL/kg; oral gavage) were used in these studies, and the rats were euthanized on SD 91. The dose levels for PFHI were 0, 12.5, 25, 50, 100, and 200 mg/kg-day. The dose levels for MHFPK were 0, 18.8, 37.5, 75, 150, and 300 mg/kg-day. The dose levels for PFNAC were 0, 0.1, 0.3, 1.0, 3.0, and 10 mg/kg-day for male rats and 0, 0.3, 1.0, 3.0, 10, and 30 mg/kg-day for female rats. For CTFPA, the dose levels were 0, 1.9, 3.8. 7.5, 15, and 30 mg/kg-day for male rats and 0, 6.3, 12.5, 25, 50, and 100 mg/kg-day for female rats. For each PFAS, three batches of dosing solution were prepared. The time between the batch preparation of the dosing solutions ranged between 29 and 39 days. Blood samples were collected from all the rats at termination for serum chemistry, hematology, coagulation, and the analysis of the parent PFAS chemical in the plasma. In vivo data collection and further detail on the endpoints examined postmortem are described below.
The rats were observed twice daily for morbidity and mortality throughout the study period. At least once prior to randomization to test groups and weekly thereafter, the rats were physically examined, and bodyweights were obtained. Feed consumption was quantified weekly starting on SD 1.
Neurotoxicity was evaluated using the functional observational battery (FOB) and measuring locomotor activity (LMA) 2–4 h post dosing on SDs 78–80 and 80–84, respectively. For both the 14- and 90-day studies, an ophthalmologic examination was conducted prior to randomization and near the end of the study, using indirect ophthalmoscopy and slit–lamp biomicroscopy (as needed) after the administration of a mydriatic solution.
Hematology, biochemistry, and coagulation endpoints were measured at the termination of the study. A Siemens Advia 2120i hematology analyzer (Siemens Healthineers, Erlangen, Germany) was used to measure (or calculate) the parameters related to the complete blood count, leukocyte differential count, and reticulocyte count. The hematology parameters are listed and described in Table 2. The prothrombin time […] and activated partial thromboplastin time (APTT) were measured using an Instrumentation Laboratory (Bedford, MA, USA) ACL Elite Pro coagulation analyzer (laser–nephelometric centrifugal method).
At necropsy, the rats were visually examined for external abnormalities and organ weights (absolute and relative to the BW and brain weight), which were recorded (paired organs weighed together). The tissues were preserved in 10% neutral buffered formalin (NBF), except for the ocular tissues, testes, and epididymides, which were preserved in modified Davidson’s fixative and later transferred to 10% NBF. Bone marrow smears were prepared from the femurs, and the slides were air-dried, fixed in methanol, stained, and stored at room temperature for possible future evaluation. The preserved tissues were embedded in paraffin, sectioned, stained with hematoxylin and eosin, and examined by a board-certified veterinary pathologist.
Statistical analysis was performed using Provantis™ Version 10 or greater (Instem LSS, Limited; Stone, Staffordshire, UK). Differences among the treatment groups compared to the control were evaluated using one-way analysis of variance (ANOVA) if the underlying assumptions of a normal distribution (Shapiro–Wilk test) and the homogeneity of the variance (Levene’s test) were satisfied. […]

Compound: C=CC(=O)OCC(F)(F)C(F)(F)C(F)(F)C(F)(F)C(F)(F)C(F)(F)C(F)(F)C(F)F [PFNAC, 1H,1H,9H-Perfluorononyl acrylate]
- Kidney Weight (1.0 mg/kg-day): 1.73 g
- Kidney/Body Weight (1.0 mg/kg-day): 0.59%
- Kidney/Brain Weight (1.0 mg/kg-day): 90.7%
- Liver Weight (1.0 mg/kg-day): 7.89 g
- Liver/Body Weight (1.0 mg/kg-day): 2.67%
- Liver/Brain Weight (1.0 mg/kg-day): 412%
- MPV (1.0 mg/kg-day): 7.59 ± 0.74 fL
- PT (1.0 mg/kg-day): 14.03 s
- RBC (1.0 mg/kg-day): 7.303±0.562 M/µL
- Total BW change (1.0 mg/kg-day): 94.80 g
- Total Food Consumed (1.0 mg/kg-day): 1444 g
- % BW Gain (3.0 mg/kg-day): 47.09%
- % Diff, % BW Gain (3.0 mg/kg-day): -3.49%
- % Diff, Total BW change (3.0 mg/kg-day): -2.02%
- % Diff, Total Food Consumed (3.0 mg/kg-day): 7.48%
- A/G (3.0 mg/kg-day): 1.15±0.06 ratio
- ABEOS (3.0 mg/kg-day): 0.083±0.028 K/µL
- ABNEUT (3.0 mg/kg-day): 1.419±0.734 K/µL
- ABRETi (3.0 mg/kg-day): 176.48±43.69 10^9/L
- ALB (3.0 mg/kg-day): 4.56 ± 0.18 g/dL
- ALPi (3.0 mg/kg-day): 55.4±20.6 U/L
- APTT (3.0 mg/kg-day): 20.34 s
- BUN (3.0 mg/kg-day): 16.4 ± 1.3 mg/dL
- CHOL (3.0 mg/kg-day): 92.3 ± 16.3 mg/dL
- GLOB (3.0 mg/kg-day): 3.97 ± 0.13 g/dL
- GLUC (3.0 mg/kg-day): 104.4 ± 8.0 mg/dL
- HCT (3.0 mg/kg-day): 41.82±2.32%
- HGB (3.0 mg/kg-day): 13.37 ± 0.68 g/dL
- Kidney Weight (3.0 mg/kg-day): 1.83 g
- Kidney/Body Weight (3.0 mg/kg-day): 0.61%
- Kidney/Brain Weight (3.0 mg/kg-day): 91.1%
- Liver Weight (3.0 mg/kg-day): 7.96 g
- Liver/Body Weight (3.0 mg/kg-day): 2.67%
- Liver/Brain Weight (3.0 mg/kg-day): 396%
- MPV (3.0 mg/kg-day): 7.77 ± 0.42 fL
- PT (3.0 mg/kg-day): 14.15 s
- RBC (3.0 mg/kg-day): 7.262±0.327 M/µL
- Total BW change (3.0 mg/kg-day): 99.10 g
- Total Food Consumed (3.0 mg/kg-day): 1512 g
- % BW Gain (10 mg/kg-day): 46.00%
- % Diff, % BW Gain (10 mg/kg-day): -5.72%
- % Diff, Total BW change (10 mg/kg-day): -5.60%
- % Diff, Total Food Consumed (10 mg/kg-day): 5.11%
- A/G (10 mg/kg-day): 1.17±0.07 ratio
- ABEOS (10 mg/kg-day): 0.081±0.022 K/µL
- ABNEUT (10 mg/kg-day): 1.562±1.084 K/µL
- ABRETi (10 mg/kg-day): 160.88±34.97 10^9/L
- ALB (10 mg/kg-day): 4.66 ± 0.39 g/dL
- ALPi (10 mg/kg-day): 50.5±7.3 U/L
- APTT (10 mg/kg-day): 22.50 s
- BUN (10 mg/kg-day): 19.1 ± 3.5 mg/dL
- CHOL (10 mg/kg-day): 77.7 ± 14.0 mg/dL
- GLOB (10 mg/kg-day): 3.98 ± 0.29 g/dL
- GLUC (10 mg/kg-day): 108.8 ± 12.0 mg/dL
- HCT (10 mg/kg-day): 41.08±2.03%
- HGB (10 mg/kg-day): 13.12 ± 0.63 g/dL
- Kidney Weight (10 mg/kg-day): 1.81 g
- Kidney/Body Weight (10 mg/kg-day): 0.62%
- Kidney/Brain Weight (10 mg/kg-day): 89.98%
- Liver Weight (10 mg/kg-day): 8.42 g
- Liver/Body Weight (10 mg/kg-day): 2.88%
- Liver/Brain Weight (10 mg/kg-day): 419%
- MPV (10 mg/kg-day): 7.80 ± 0.60 fL
- PT (10 mg/kg-day): 14.11 s
- RBC (10 mg/kg-day): 7.241±0.358 M/µL
- Total BW change (10 mg/kg-day): 95.48 g
- Total Food Consumed (10 mg/kg-day): 1479 g
- % BW Gain (30 mg/kg-day): 52.06%
- % Diff, % BW Gain (30 mg/kg-day): 6.69%
- % Diff, Total BW change (30 mg/kg-day): 5.59%
- % Diff, Total Food Consumed (30 mg/kg-day): 8.40%
- ABEOS (30 mg/kg-day): 0.082±0.026 K/µL
- ABNEUT (30 mg/kg-day): 1.118±0.358 K/µL
- ABRETi (30 mg/kg-day): 164.87±31.05 10^9/L
- APTT (30 mg/kg-day): 22.09 s
- HCT (30 mg/kg-day): 40.37±2.37%
- HGB (30 mg/kg-day): 13.04 ± 0.72 g/dL
- Kidney Weight (30 mg/kg-day): 1.99 g
- Kidney/Body Weight (30 mg/kg-day): 0.65%
- Kidney/Brain Weight (30 mg/kg-day): 101%
- Liver Weight (30 mg/kg-day): 9.83 g
